From PubChem BioAssay AID1328 (NMMLSC, 2008)
Active and inactive are the calls of the source. No rule for the calls is given here.

Biological target: Apoptosis regulator Bcl-2 (Homo sapiens) (UniProt P10415)
Assay: Bim-Bcl-2 binding modulators, biochemical, multiplexed, high-throughput, human Bcl-2 (AID 1328)
Settings: Bead-based flow cytometry, fluorescent Bim peptide-Bcl-2 binding

Sequence of Apoptosis regulator Bcl-2 (Homo sapiens) (P10415 whole entry, looked up): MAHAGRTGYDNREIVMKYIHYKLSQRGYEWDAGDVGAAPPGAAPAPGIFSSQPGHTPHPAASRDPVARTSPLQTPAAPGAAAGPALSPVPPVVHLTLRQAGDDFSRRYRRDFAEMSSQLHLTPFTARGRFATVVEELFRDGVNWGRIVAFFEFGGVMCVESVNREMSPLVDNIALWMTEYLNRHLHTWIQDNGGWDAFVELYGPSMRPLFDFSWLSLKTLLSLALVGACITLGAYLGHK

| Structure (SMILES) | EC50 |
| --- | --- |
| Clc1ccc2c(N/N=C/c3ccccc3Br)ccnc2c1 | inactive |
| O=[N+]([O-])c1ccc(N/N=C/c2ccc(O)c(O)c2O)c(S(=O)(=O)N2CCOCC2)c1 | inactive |
| CCC(=O)N(CC)C1=C(O)c2ccccc2C(=O)C1=O | inactive |
| CN(C)[C@@H]1C(=O)C(C(=O)NCN2CCCC2)=C(O)[C@@]2(O)C(=O)C3=C(O)c4c(O)cccc4[C@@](C)(O)C3CC12 (stereo not given in full) | inactive |
| COc1cc(/C=N/Nc2nn3cnnc3c3ccccc23)ccc1O | inactive |
